Patent US8198291B2, “Intranasal opioid compositions” (University of Kentucky Research Foundation, priority 2000, dated 2012)

Legend:
[1] = Pharmacokinetics of butorphanol formulation without benzethonium chloride, Pfeiffer Unitdose Second Generation device; type: in vivo, human; conditions: single 2 mg intranasal dose, unit-dose device
Excerpt: This formulation had the following spray pattern function when sprayed from the Pfeiffer Unitdose Second Generation device onto an impaction plate from at various distances.
The formulation had the following function and properties when administered to human subjects via the Pfeiffer Unitdose Second Generation spray device.

[2] = Bioavailability/bioequivalence of intranasal butorphanol formulation, unit-dose vs multi-dose spray device; type: in vivo, human
Experimental: This example compares bioavailability of a butorphanol formulation when administered using a unit-dose or multi-dose delivery device. The formulation contains 10 mg butorphanol tartrate, 6.5 mg sodium chloride, 1.0 mg citric acid, 0.20 mg benzethonium chloride in purified water with 1.2 mg sodium hydroxide and hydrochloric acid added to adjust the pH to 5.0. The multi-dose sprayer purports by its label to administer 0.1 ml of liquid composition by metering upon activation by the user. The formulation had the following function and properties when administered to human subjects via the Pfeiffer Unitdose Second Generation spray device.
The second delivery system employed to administer the butorphanol compositions was a unit-dose disposable intranasal applicator that is commercially available from Pfeiffer of America under the designation “Unitdose Second Generation.” Each of the Pfeiffer spray applicators was charged with sufficient liquid to deliver a 0.1 mL dose of the butorphanol test formulation. The glass containers were filled using a pipette under clean conditions, sealed and assembled to the applicator. Each of the applicators was weighed prior to use and after use. Qualified medical personnel administered, one dose into each nostril, after which the applicator was recovered for weighing. In the case of the unit-dose applicators (test formulation), two devices were used for each patient, both of which were discarded following the post-use weighing. The results of these studies of the method and system of the invention and the comparative prior art method follow.
This example assesses the bioequivalence of a butorphanol formulation administered from the unit-dose or multi-dose sprayers described above. The test formulation comprises 1 ml of STADOL NS containing 10 mg butorphanol tartrate, 6.5 mg sodium chloride, 1.0 mg citric acid, 0.20 mg benzethonium chloride in purified water with 1.2 mg sodium hydroxide and hydrochloric acid added to adjust the pH to 5.0. The multi-dose sprayer accompanying STADOL NS purports, by its label, to administer 0.1 ml of liquid. The unit-dose delivery device delivers 0.1 ml of liquid.
The second analysis was to determine whether the intrasubject variabilities of the two spray devices are equal. The study was initiated with 16 subjects, 15 of which completed the study to provide data for this analysis; one subject dropped out after the second period. The following analysis considers both raw and normalized data, with the latter standardized with respect to the dose dispensed.
For both the raw and normalized data, log transformations are applied to the pharmacokinetic endpoints Cmax, AUC ([…]), and AUC(inf.). A mixed effects model was considered for each parameter. Fixed effects for the factors sequence (4 levels), period 3 levels) and formulation (2 levels) were included in the model. Additionally, gender, as well as the interactions between gender and each of sequence, period and formulation was included as a factor in each model to determine whether separate analyses would be necessary for males and females. A total of seven models were considered: Tmax, log of raw Cmax values, log of normalized Cmax values, log transformed values for raw and normalized AUC(last), and log values for raw and normalized AUC(inf.). […] In addition, the lack of significance of the effects included in each model indicate that there was no evidence of unequal carryover between the delivery system of the prior art and that in one embodiment of the present invention.
The mean levels of butorphanol from analysis of the subject's blood plasma reported in pg/ml are plotted against time in FIGS. 1 and 2. The concentration of drug for the unit-dose was unexpectedly higher than that of the multi-dose system. The testing for bioequivalence was done using the method of two one-sided t-test (as described by Bolton, S., Pharmaceutical Statistics. Marcel Dekker, Inc., New York, 1997, pages 415 ff.). […]

[3] = 2 mg intranasal dose, Pfeiffer Unitdose Second Generation spray device, formulation with benzethonium chloride
[4] = 90% CI, line between normCmax and normAUCinf, exponentiated, unit-dose vs multi-dose
[5] = 90% CI, normalized to dispensed dose, exponentiated, unit-dose vs multi-dose
[6] = 90% CI, raw data, exponentiated, unit-dose vs multi-dose
[7] = 90% confidence interval, unit-dose (test) vs multi-dose (reference)
[8] = intranasal, multi-dose spray pump

Structure (SMILES): O=C(O)C(O)C(O)C(=O)O.Oc1ccc2c(c1)[C@@]13CCCC[C@@]1(O)[C@@H](C2)N(CC1CCC1)CC3 [butorphanol tartrate]
- Tmax [1]: about 0.25 hr
- AUC(0-t) [2, 3]: about 10661 pg*hr/ml
- Cmax [2, 3]: about 5230 pg/ml
- Tmax [2, 3]: about 0.234 hr
- log(AUClast) (second line of the table), Lower Conf Limit for Ratio of Test/Reference [2, 4]: 0.921
- log(AUClast) (second line of the table), Upper Conf Limit for Ratio of Test/Reference [2, 4]: 1.290
- log(normAUCinf), Lower Conf Limit for Ratio of Test/Reference [2, 5]: 0.937
- log(normAUCinf), Upper Conf Limit for Ratio of Test/Reference [2, 5]: 1.220
- log(normCmax), Lower Conf Limit for Ratio of Test/Reference [2, 5]: 0.897
- log(normCmax), Upper Conf Limit for Ratio of Test/Reference [2, 5]: 1.589
- log (AUClast), Lower Conf Limit for Ratio of Test/Reference [2, 6]: 1.037
- log (AUClast), Upper Conf Limit for Ratio of Test/Reference [2, 6]: 1.540
- log (Cmax), Lower Conf Limit for Ratio of Test/Reference [2, 6]: 1.031
- log (Cmax), Upper Conf Limit for Ratio of Test/Reference [2, 6]: 1.855
- log(AUCinf), Lower Conf Limit for Ratio of Test/Reference [2, 6]: 1.050
- log(AUCinf), Upper Conf Limit for Ratio of Test/Reference [2, 6]: 1.461
- Tmax, Lower Conf Limit for Ratio of Test/Reference [2, 7]: 0.749
- Tmax, Upper Conf Limit for Ratio of Test/Reference [2, 7]: 1.132
- AUC(0-t) [2, 8]: 9.329 ng·h/mL
- Cmax [2, 8]: 4.072 ng/mL
- Tmax [2, 8]: 14.7 min
- area under the curve from multi-dose device as percent of that of the test (unit-dose) ([2]; multi-dose vs unit-dose device): 90%
- higher area under the curve of test device compared to reference device ([2]; unit-dose vs multi-dose device): 10%
- higher serum levels of test device compared to reference device ([2]; unit-dose vs multi-dose device): 10%
